After the bases stand the sugars from the 5' end (letter, count) and the backbone: PS all phosphorothioate, else s phosphorothioate and o phosphodiester by linkage. Methylation of C is not given here. e = 2'-O-(2-methoxyethyl) (MOE); k = constrained ethyl (cEt); d = 2'-deoxy (DNA); m = 2'-O-methyl
Molecular target: HSD17B13
Conditions: ASO, HepaRG

Row | Sequence | target mRNA inhibition (1 µM) [%] | further results
1 | ATATGTCCAGGTTGAG (sugars k3 d1 m1 d8 k3, PS) | 48 | 
2 | ATATGTCCAGGTTGAG (sugars k3 d9 k3 e1, PS) | 71 | 
3 | ATATGTCCAGGTTGAG (sugars kkdddddddddkekek, PS) | 28 | 
4 | ATATGTGAAGAGCTGG (sugars k3 d10 k3, PS) | 51 | 
5 | ATATTATCAGGACTGA (sugars k3 d10 k3, PS) | 47 | 
6 | ATATTCCAGGATTTGC (sugars k3 d10 k3, PS) | 26 | 
7 | ATATTCTGTGGCATGG (sugars kkdddddddddkekek, PS) | 43 | 
8 | ATATTGAGGCACTGGA (sugars k3 d10 k3, PS) | 53 | 
9 | ATATTGATATACGATG (sugars k3 d10 k3, PS) | 0 | 
10 | ATCAACCTGCACACCA (sugars k3 d10 k3, PS) | 63 | 
11 | ATCAAGACATTCTAGC (sugars k3 d10 k3, PS) | 61 | 
12 | ATCAATGCCTTAGCCC (sugars k3 d10 k3, PS) | 38 | 
13 | ATCACAAGTAAGGTAA (sugars k3 d10 k3, PS) | 62 | 
14 | ATCAGTTTTCCTCATG (sugars k3 d10 k3, PS) | 48 | 
15 | ATCCAAAGATGAGAGT (sugars k3 d10 k3, PS) | 5 | 
16 | ATCCCAACCAAACTTC (sugars k3 d10 k3, PS) | 15 | 
17 | ATCCTATATACATCCA (sugars k3 d9 k3 e1, PS) | 75 | target mRNA inhibition (0.02 µM): 0%; target mRNA inhibition (0.078 µM): 7%; target mRNA inhibition (0.313 µM): 39%; target mRNA inhibition (1.25 µM): 55%; target mRNA inhibition (5 µM): 76%
18 | ATCCTATATACATCCA (sugars kkdddddddddkekek, PS) | 65 | 
19 | ATCTATCAGACTTCTT (sugars k3 d10 k3, PS) | 47 | 
20 | ATCTATCAGACTTCTT (sugars kkdddddddddkekek, PS) | 37 | 
21 | ATCTATTATGCACTCT (sugars k3 d10 k3, PS) | 24 | 
22 | ATCTCTGGGACCAAGG (sugars k3 d9 k3 e1, PS) | 53 | 
23 | ATGAAGTTAGTATAGT (sugars k3 d10 k3, PS) | 55 | 
24 | ATGAGGTAAGGAATCC (sugars k3 d10 k3, PS) | 0 | 
25 | ATGAGGTTTTGATACC (sugars k3 d1 m1 d8 k3, PS) | 49 | 

Row | Sequence | target mRNA inhibition (1 µM) [%] | further results
26 | ATGAGGTTTTGATACC (sugars k3 d10 k3, PS) | 47 | 
27 | ATGAGGTTTTGATACC (sugars kkdddddddddkekek, PS) | 51 | 
28 | ATGCAAAAGCATTCTA (sugars k3 d10 k3, PS) | 50 | 
29 | ATGCTAAAAGCTCACC (sugars k3 d10 k3, PS) | 50 | 
30 | ATGCTACTTGAACAGT (sugars k3 d10 k3, PS) | 47 | 
31 | ATGGATCTAGAACACT (sugars k3 d10 k3, PS) | 43 | 
32 | ATGGCTACAGATTGGA (sugars kkdddddddddkekek, PS) | 57 | 
33 | ATGGTAAACTGTATGC (sugars k3 d10 k3, PS) | 78 | target mRNA inhibition (0.02 µM): 19%; target mRNA inhibition (0.078 µM): 23%; target mRNA inhibition (0.313 µM): 53%; target mRNA inhibition (1.25 µM): 75%; target mRNA inhibition (5 µM): 89%
34 | ATGGTAAGGAGTAGTG (sugars k3 d10 k3, PS) | 17 | 
35 | ATGTAATAGCCAGTAC (sugars k3 d1 m1 d8 k3, PS) | 42 | 
36 | ATGTAATAGCCAGTAC (sugars k3 d9 k3 e1, PS) | 63 | 
37 | ATGTAATAGCCAGTAC (sugars kkdddddddddkekek, PS) | 47 | 
38 | ATGTAATAGGCAGTAA (sugars k3 d10 k3, PS) | 33 | 
39 | ATGTATCTTATAAGAC (sugars kkdddddddddkekek, PS) | 18 | 
40 | ATGTATGAGGTCTCCG (sugars k3 d10 k3, PS) | 63 | 
41 | ATGTCAGACCTCTGTG (sugars k3 d10 k3, PS) | 19 | 
42 | ATGTCTTGGTAATCTC (sugars k3 d10 k3, PS) | 23 | 
43 | ATGTGAAGAGCTGGTA (sugars k3 d1 m1 d8 k3, PS) | 26 | 
44 | ATGTGAAGAGCTGGTA (sugars k3 d10 k3, PS) | 42 | 
45 | ATGTGAAGAGCTGGTA (sugars kkkddkddddddkkke, PS) | 56 | 
46 | ATGTGATTGAGTTCTC (sugars k3 d10 k3, PS) | 36 | 
47 | ATGTTTTGATCCAGGG (sugars k3 d10 k3, PS) | 46 | 
48 | ATTAACATTCGGCTAG (sugars k3 d10 k3, PS) | 17 | 
49 | ATTAAGCATTGTTAGC (sugars k3 d10 k3, PS) | 0 | 
50 | ATTAAGTACTGTGAGA (sugars k3 d10 k3, PS) | 1 | 
